Results: US11298333B1, “Methods of reducing the risk of cardiovascular events in a subject” (Amarin Pharmaceuticals Ireland Limited, priority 2018, dated 2022)
Like-named read-outs stand apart in the source and are kept apart here.

System: hypertriglyceridemic patients with cardiovascular disease or at high risk for cardiovascular disease
Assay type: in vivo
Settings: for Key secondary composite endpoint: relative risk reduction vs placebo / Primary composite endpoint: relative risk reduction vs placebo: over 5 years
Source text: The following study, also referred to as the REDUCE-IT clinical trial, was a large cardiovascular (CV) outcome trial designed to assess CV risk reduction benefit of AMR101 treatment (commercially known as VASCEPA®) versus placebo on the 5-point primary composite endpoint: CV death, non-fatal stroke, non-fatal myocardial infarction (MI), coronary revascularizations, or unstable angina requiring hospitalization.
A multi-center, prospective, randomized, double-blind, placebo-controlled, parallel-group study was performed to evaluate the effect of AMR101 (4 g per day) on cardiovascular health and mortality in hypertriglyceridemic patients with cardiovascular disease or at high risk for cardiovascular disease. The intended expanded indication of the study was treatment with AMR101 as an add-on to statin therapy to reduce the risk of cardiovascular events in patients with clinical cardiovascular disease or with multiple risk factors for cardiovascular disease.
The primary objective of this study was, in patients at LDL-C goal while on statin therapy, with established cardiovascular disease (CVD) or at high risk for CVD, and hypertriglyceridemia (e.g., fasting triglycerides (TG) ≥200 mg/dL and <500 mg/dL), to evaluate the effect of AMR101 4 g daily on time from randomization to first occurrence of any component of the composite of the following major CV events: CV death; nonfatal MI; (including silent MI; electrocardiograms (ECGs) were performed annually for the detection of silent MIs); nonfatal stroke; coronary revascularization; and unstable angina determined to be caused by myocardial ischemia by invasive/non-invasive testing and requiring emergent hospitalization.
The key secondary objective of this study was to evaluate the effect of AMR101 4 g daily on the time from randomization to the first occurrence of the composite of following major CV events: CV death, nonfatal MI (including silent MI), and nonfatal stroke.
Other secondary objectives for this study were to evaluate the effect of therapy on time from randomization to the first occurrence of the following individual or composite endpoints: composite of CV death or nonfatal MI (including silent MI); fatal or nonfatal MI (including silent MI); non-elective coronary revascularization represented as the composite of emergent or urgent classifications; CV death; unstable angina determined to be caused by myocardial ischemia by invasive/non-invasive testing and requiring emergent hospitalization; fatal or nonfatal stroke; composite of total mortality, nonfatal MI (including silent MI), or nonfatal stroke; and total mortality.
Primary Efficacy Endpoint: The primary efficacy endpoint was time from randomization to the first occurrence of the composite of the following clinical events: CV death; nonfatal MI (including silent MI; ECGs were performed annually for the detection of silent MIs); nonfatal stroke; coronary revascularization; and unstable angina determined to be caused by myocardial ischemia by invasive/non-invasive testing and requiring emergent hospitalization. The first occurrence of any of these major adverse vascular events during the follow-up period of the study were included in the incidence.
Secondary Efficacy Endpoints: The key secondary efficacy endpoint was the time from randomization to the first occurrence of the composite of CV death, nonfatal MI (including silent MI), or nonfatal stroke. […]

[1] = 4 g/day, ITT, hierarchical secondary endpoint
[2] = 4 g/day, ITT, median follow-up 4.9 years
[3] = 4 g/day, ITT, time to first event, median follow-up 4.9 years
[4] = 4 g/day, ITT, time to first event
[5] = 4 g/day, ITT, time to first event, listed as AMR101

Structure (SMILES): CC/C=C\C/C=C\C/C=C\C/C=C\C/C=C\CCCC(=O)OCC [Icosapent Ethyl, eicosapentaenoic acid ethyl ester]
- Cardiac arrest: reduction vs placebo (4 g/day): 48%
- Reduction in heart attack vs placebo (4 g/day): 31%
- Sudden death: reduction vs placebo (4 g/day): 31%
- Cardiovascular death: relative risk reduction vs placebo (4 g/day, ITT): 20%
- Composite of cardiovascular death or nonfatal myocardial infarction: RRR (4 g/day, ITT): 25%
- Composite of total mortality, nonfatal myocardial infarction, or nonfatal stroke: RRR (4 g/day, ITT): 23%
- Fatal or nonfatal myocardial infarction: RRR (4 g/day, ITT): 31%
- Fatal or nonfatal stroke: RRR (4 g/day, ITT): 28%
- Total mortality: HR vs placebo (4 g/day, ITT): 0.87
- Total mortality: relative risk reduction vs placebo (4 g/day, ITT): 13%
- Cardiovascular death: HR vs placebo [1]: 0.80
- Cardiovascular death: patients with event [1]: 4.3%
- Total mortality (death from any cause): patients with event (4 g/day, ITT, last hierarchical secondary endpoint): 6.7%
- Key secondary composite endpoint: absolute risk reduction vs placebo [2]: 3.6%
- Primary composite endpoint: absolute risk reduction vs placebo [2]: 4.8%
- Key secondary composite endpoint (CV death, nonfatal MI, or nonfatal stroke): patients with event [3]: 11.2%
- Primary composite endpoint (CV death, nonfatal MI, nonfatal stroke, coronary revascularization, or unstable angina): patients with event [3]: 17.2%
- Key secondary composite endpoint: relative risk reduction vs placebo [4]: 26%
- Primary composite endpoint: relative risk reduction vs placebo [4]: 25%
- Key secondary composite endpoint: relative risk reduction vs placebo [5]: 26%
- Primary composite endpoint: relative risk reduction vs placebo [5]: 25%
- Adjudicated tertiary endpoint of heart failure: patients with event (4 g/day, no significant difference vs placebo): 4.1%
- Primary endpoint: risk reduction in post hoc analysis excluding patients with diarrhea (post hoc): 25%
- Adjudicated sudden cardiac death: patients with event (tertiary endpoint, 4 g/day, ITT): 1.5%
- Cardiac Arrest: HR (95% CI) (tertiary endpoint, vs placebo): 0.52 (0.31, 0.86)
- Coronary Revascularization: HR (95% CI) (tertiary endpoint, vs placebo): 0.66 (0.58, 0.76)
- Elective Revascularization: HR (95% CI) (tertiary endpoint, vs placebo): 0.68 (0.57, 0.82)
- Emergent Revascularization: HR (95% CI) (tertiary endpoint, vs placebo): 0.62 (0.42, 0.92)
- Ischemic Stroke: HR (95% CI) (tertiary endpoint, vs placebo): 0.64 (0.49, 0.85)
- New Heart Failure Requiring Hospitalization: HR (95% CI) (tertiary endpoint, vs placebo): 0.97 (0.77, 1.22)
- New Heart Failure: HR (95% CI) (tertiary endpoint, vs placebo): 0.95 (0.77, 1.17)
- Primary Endpoint in Patients with Diabetes at Baseline: HR (95% CI) (tertiary endpoint, vs placebo): 0.77 (0.68, 0.87)
- Salvage Revascularization: HR (95% CI) (tertiary endpoint, vs placebo): 0.00 (0.00, —)
- Urgent Revascularization: HR (95% CI) (tertiary endpoint, vs placebo): 0.66 (0.54, 0.79)
